Results from patent US20250137054A1, “COMPOSITION AND METHOD FOR EVALUATING RESPONSIVENESS OF EDARAVONE” (MITSUBISHI TANABE PHARMA CORPORATION, priority 2022, published 2025).

Experiments:
[1] = test system: differentiated 1464R cell line (no forced TDP-43 expression); assay: RNA-seq gene expression analysis in differentiated cell line without TDP-43; type: cell-based, rat; details: Group 2 (Eda 50 μmol/L 48 h) vs Group 1 (control)
Method: Next, using a differentiation medium shown below, the 1464R cell line was cultured in an adherent state on a poly-L-lysine treated dish. Culture conditions for cell differentiation were 37° C., 5% CO2, and 4 days. Through this process, the 1464R cell line was differentiated into neuronal cells (neurons). Further, the 1464R cell line partly differentiated into glial cells. In the following description, the differentiated 1464R cell line is also collectively referred to as the “differentiated cell line.” […]
Next, using the NovaSeq6000 system (NovaSeq6000 S4 reagent kit, NovaSeq Xp4 lane kit, and NovaSeq control software (version 1.6.0); all manufactured by Illumina), sequences of the cDNA library were determined according to a product protocol. […]
An RNA expression level (TPM) of a transcription product i measured from the cDNA library of the experimental groups was calculated based on alignment to the rat genome and transcription product annotation from the Ensembl database, according to the following equation (A).
Differential expression analysis was performed using DESeq2 (a package for two-group comparison) in the statistical analysis software R (version 3.6.0) to calculate a log 2 ratio of RNA expression levels and a significance test. The log 2 ratio is a value expressed as “log 2 ([expression level of a first measurement target]/[expression level of a second measurement target]).” […]

[2] = test system: disease model cells (neurons derived from the 1464R cell line forcibly expressing wild-type and mutant TDP-43); assay: Evaluation of cell protection using chromogenic substrate (Cell Counting Kit-8), with EA; type: cell-based, rat; details: Eda 1-200 μmol/L 24 h, then EA 20 μmol/L 24 h; vs Comparative Example 1 (FIG. 3)
Method: Using both vectors (a) and (b), the differentiated cell line in the infection medium was infected with adenovirus at a multiplicity of infection of 50, and cultured for 24 hours. As a result, neurons derived from the 1464R cell line, in which both wild-type and mutant TDP-43 were forcibly expressed intracellularly (hereinafter, also referred to as disease model cells), were obtained.
After that, a cell toxicity measurement kit (Cell Counting Kit-8, manufactured by DOJINDO) was used to expose the cells in each group according to a product protocol, and an amount of chromogenic substrate produced was measured by absorbance at 450 nm.
With this kit, the more viable cells present, the more chromogenic substrate is produced, resulting in a higher absorbance value at 450 nm. Therefore, a higher absorbance at 450 nm indicates a greater number of viable cells.
The data shown in FIG. 3 are all expressed as mean±standard error of the mean (SEM, n=4 for each). In FIG. 3, the symbol “##” indicates a statistically significant difference of p<0.01 compared to Comparative Example 1 (determined by Student t-test). In FIG. 3, the symbol “*” indicates a statistically significant difference of p<0.05 compared to Comparative Example 1, and the symbol “**” indicates a statistically significant difference of p<0.01 compared to Comparative Example 1 (both determined by Williams' multiple comparison test).

## CC1=NN(c2ccccc2)C(=O)C1 [edaravone, 5-methyl-2-phenyl-2,4-dihydro-3H-pyrazol-3-one]
[1]
  number of downregulated genes (DEGs): 0/0
  number of upregulated genes (DEGs): 0/0
[2]
  absorbance at 450 nm (number of viable cells): increased in an Eda concentration-dependent manner
